{
  "source": "paper PMC5835316",
  "about": "(Chemosphere, 2017)",
  "key": {"[1]": {"system": "zebrafish (Danio rerio) embryo", "assay": "zebrafish embryo teratogenicity assay", "settings": "for percent deformity: 15, 30 and 60 µM (≥ 15 µM); for EC50: read-out: EC50 (for teratogenicity) and LC50, equivalently calculated; for EC50/LC50: retinoids, deformity equivalent to mortality, probit analysis"}, "[2]": {"format": "physicochemical", "settings": "mild heating; standing at room temperature and ambient light"}, "[3]": {"system": "zebrafish (Danio rerio) embryo", "settings": "ref Hermann, 1995; Selderslaghs et al., 2009; Wang et al., 2014; cited from earlier work"}, "RAR": {"system": "RAR", "settings": "ref Repa et al., 1993; cited from earlier work"}},
  "note": "Read-outs that look alike come from different tables or passages of the source.",
  "data": [
    {"compound": "4-Hydroxymyxol 2′-glycoside [Compound 3]", "values": [
      {"measurement": "teratogenicity (qualitative, bioassay-guided fractionation)", "setting": "[1]; in vivo", "value": "single bioactive component"}
    ]},
    {"compound": "4-Ketomyxol 2′-glycoside [Compound 2]", "values": [
      {"measurement": "stability", "setting": "[2]", "value": "highly unstable"},
      {"measurement": "observed deformities (Fig. 5)", "setting": "[1]; 3 and 5 dpf", "value": "head and eye hypoplasia and truncated tail"},
      {"measurement": "additional concentration with significant percent deformity", "setting": "[1]; by 3 dpf", "value": 5, "unit": "µM"},
      {"measurement": "concentration showing pronounced developmental dysfunction", "setting": "[1]; by 3 dpf", "value": "≥ 5", "unit": "µM"},
      {"measurement": "percent deformity", "setting": "[1]; by 3 dpf", "value": 100, "unit": "%"},
      {"measurement": "EC50", "setting": "[1]; at 5 dpf, ± standard error", "value": "1.8 ± 0.2", "unit": "µM"}
    ]},
    {"compound": "CC1=C(/C=C/C(C)=C/C=C/C(C)=C/C=C/C=C(C)/C=C/C=C(C)/C=C/C=C(C)/C=C/[C@H](O[C@@H]2O[C@@H](C)[C@@H](O)[C@@H](O)[C@@H]2O)C(C)(C)O)C(C)(C)C[C@H](O)C1", "note": "[Compound 1, Myxol 2′-glycoside]", "values": [
      {"measurement": "stability", "setting": "[2]", "value": "highly unstable"},
      {"measurement": "observed deformities (Fig. 5)", "setting": "[1]; 5 µM, 3 and 5 dpf", "value": "head and eye hypoplasia, truncated tail and pericardial edema"},
      {"measurement": "concentration showing pronounced developmental dysfunction", "setting": "[1]; by 3 dpf", "value": "≥ 5", "unit": "µM"},
      {"measurement": "percent deformity", "setting": "[1]; by 3 dpf", "value": 100, "unit": "%"},
      {"measurement": "EC50", "setting": "[1]; at 5 dpf, ± standard error", "value": "2.4 ± 0.9", "unit": "µM"}
    ]},
    {"compound": "CC1=C(/C=C/C(C)=C/C=C/C(C)=C/C(=O)O)C(C)(C)CCC1", "note": "[RA, all-trans retinoic acid]", "values": [
      {"measurement": "LC50 and EC50 (for teratogenicity) previously reported in the zebrafish embryo", "setting": "[3]", "value": "nanomolar to sub-nanomolar range"},
      {"measurement": "teratogenicity at lowest concentration tested", "setting": "[1]; 1 µM", "value": "effectively lethal"},
      {"measurement": "observed deformities (Fig. 5)", "setting": "[1]; 1 µM, 3 dpf and 5 dpf", "value": "severely arrested development of the body axis including head and eye hypoplasia and truncated tail"}
    ]},
    {"compound": "CC1=C(/C=C/C(C)=C/C=C/C(C)=C/C=C/C=C(C)/C=C/C=C(C)/C=C/C2=C(C)C(=O)CCC2(C)C)C(C)(C)CCC1=O", "note": "[canthaxanthin]", "values": [
      {"measurement": "observed deformities (Fig. 5)", "setting": "[1]; 30 µM, 3 dpf", "value": "head and eye hypoplasia and truncated tail"},
      {"measurement": "percent deformity (development toxicity)", "setting": "[1]; 2 dpf, 60 µM", "value": "approximately 89%"},
      {"measurement": "percent deformity", "setting": "[1]; by 3 dpf", "value": 100, "unit": "%"},
      {"measurement": "EC50", "setting": "[1]; at 5 dpf, ± standard error", "value": "8.7 ± 1.8", "unit": "µM"}
    ]},
    {"compound": "CC1=C[C@H](O)CC(C)(C)[C@H]1/C=C/C(C)=C/C=C/C(C)=C/C=C/C=C(C)/C=C/C=C(C)/C=C/C1=C(C)C[C@@H](O)CC1(C)C", "note": "[lutein]", "values": [
      {"measurement": "observed deformities (Fig. 5)", "setting": "[1]; 30 µM", "value": "head and eye hypoplasia and truncated tail"},
      {"measurement": "EC50", "setting": "[1]; Danio rerio", "value": "4.7 ± 3", "unit": "µM"},
      {"measurement": "percent deformity", "setting": "[1]; by 3 dpf", "value": 100, "unit": "%"}
    ]},
    {"compound": "CC1=C(/C=C/C(C)=C/C=C/C(C)=C/C=O)C(C)(C)CCC1", "note": "[retinal, all-trans retinaldehyde]", "values": [
      {"measurement": "binding affinity to RAR", "setting": "RAR", "value": "essentially no binding affinity"},
      {"measurement": "EC50/LC50", "setting": "[1]", "value": "1.8 ± 0.7", "unit": "µM"}
    ]},
    {"compound": "CC1=C(/C=C/C(C)=C/C=C/C(C)=C/CO)C(C)(C)CCC1", "note": "[retinol]", "values": [
      {"measurement": "EC50/LC50", "setting": "[1]", "value": "9.2 ± 7.6", "unit": "µM"}
    ]},
    {"compound": "CC1=C(/C=C/C(C)=C/C=C/C(C)=C/C=C/C=C(C)/C=C/C=C(C)/C=C/C2=C(C)C[C@@H](O)CC2(C)C)C(C)(C)C[C@H](O)C1", "note": "[zeaxanthin]", "values": [
      {"measurement": "observed deformities (Fig. 5)", "setting": "[1]; 60 µM, 3 dpf", "value": "little effect"},
      {"measurement": "embryo development", "setting": "[1]; 3–5 dpf, 60 µM", "value": "developed normally"},
      {"measurement": "teratogenicity", "setting": "[1]; 5-day exposure studies, 1-60 µM", "value": "no teratogenicity was observed"}
    ]},
    {"compound": "CC1=C(/C=C/C(C)=C/C=C/C(C)=C/C=C/C=C(C)/C=C/C=C(\\C)C=O)C(C)(C)CCC1", "note": "[β-apo-8’carotenal, trans-β-apo-8’carotenal]", "values": [
      {"measurement": "teratogenicity", "setting": "[1]; at 3 dpf", "value": "no teratogenicity was observed"},
      {"measurement": "developmental toxicity (percent deformity)", "setting": "[1]; at 5 dpf, not significantly different from controls", "value": "~ 22%"}
    ]},
    {"compound": "CC1=C(/C=C/C(C)=C/C=C/C(C)=C/C=C/C=C(C)/C=C/C=C(C)/C=C/C2=C(C)CCCC2(C)C)C(C)(C)CCC1", "note": "[β-carotene]", "values": [
      {"measurement": "observed deformities (Fig. 5)", "setting": "[1]; 30 µM, 5 dpf", "value": "truncated tail and pericardial edema"},
      {"measurement": "EC50", "setting": "[1]; Danio rerio", "value": "23.5 ± 8.9", "unit": "µM"}
    ]}
  ]
}
